Results taken from PubChem BioAssay AID256 (DTP/NCI, 2004).
Several values for one entry are separate records, joined by “and”; a condition that tells them apart may be missing. Identical values can stand only once. Inconclusive results and toxic doses are left out. The calls were made as follows: active = survival T/C of 150% or more; inactive = T/C below 125% in these data.

Tested on: CD2F1 mice, L1210 leukemia ip, survival T/C
Assay: NCI In Vivo Anticancer Drug Screen. Data for tumor model L1210 Leukemia (intraperitoneal) in CD2F1 (CDF1) mice
Details: higher = longer survival
Procedure, shortened: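 Ratio T/C, where T is the treated-group value and C the vehicle-dosed control value, from mice implanted with a transplantable tumor.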

[1] = endpoint: mean survival time, dose: 100.0 mg/kg/injection, schedule: Q04DX003 (ip), vehicle: saline
[2] = endpoint: mean survival time, dose: 200.0 mg/kg/injection, schedule: Q04DX003 (ip), vehicle: saline
[3] = endpoint: mean survival time, dose: 100.0 mg/kg/injection, schedule: Q04DX003 (ip), vehicle: saline with Tween-80
[4] = endpoint: mean survival time, dose: 200.0 mg/kg/injection, schedule: Q04DX003 (ip), vehicle: saline with Tween-80
[5] = endpoint: mean survival time, dose: 400.0 mg/kg/injection, schedule: Q04DX003 (ip), vehicle: saline with Tween-80
[6] = endpoint: mean survival time, dose: 50.0 mg/kg/injection, schedule: Q01DX009 (ip), vehicle: saline with Tween-80
[7] = endpoint: mean survival time, dose: 100.0 mg/kg/injection, schedule: Q01DX009 (ip), vehicle: saline with Tween-80
[8] = endpoint: mean survival time, dose: 100.0 mg/kg/injection, schedule: Q04DX002 (ip), vehicle: saline with Tween-80
[9] = endpoint: mean survival time, dose: 200.0 mg/kg/injection, schedule: Q01DX009 (ip), vehicle: saline with Tween-80
[10] = endpoint: mean survival time, dose: 200.0 mg/kg/injection, schedule: Q04DX002 (ip), vehicle: saline with Tween-80
[11] = endpoint: mean survival time, dose: 400.0 mg/kg/injection, schedule: Q04DX002 (ip), vehicle: saline with Tween-80
[12] = endpoint: mean survival time, dose: 100.0 mg/kg/injection, schedule: Q01DX001 (ip), vehicle: saline with Tween-80
[13] = endpoint: mean survival time, dose: 200.0 mg/kg/injection, schedule: Q01DX001 (ip), vehicle: saline with Tween-80
[14] = endpoint: mean survival time, dose: 400.0 mg/kg/injection, schedule: Q01DX001 (ip), vehicle: saline with Tween-80
[15] = endpoint: mean survival time, dose: 400.0 mg/kg/injection, schedule: Q01DX009 (ip), vehicle: saline with Tween-80

Measured: T/C

CCOC(=O)CC(=O)N(CC)CC
inactive: endpoint: mean survival time, dose: 100.0 mg/kg/injection, schedule: Q01DX009 (ip), vehicle: saline 98 % of control | [1] 99 % of control | endpoint: mean survival time, dose: 200.0 mg/kg/injection, schedule: Q01DX009 (ip), vehicle: saline 93 % of control | [2] 95 % of control | endpoint: mean survival time, dose: 400.0 mg/kg/injection, schedule: Q01DX009 (ip), vehicle: saline 96 % of control | endpoint: mean survival time, dose: 400.0 mg/kg/injection, schedule: Q04DX003 (ip), vehicle: saline 108 % of control

O=C(O)CC1(Br)C(=O)Nc2ccccc21 (stereo not drawn)
inactive: endpoint: mean survival time, dose: 100.0 mg/kg/injection, schedule: Q04DX003 (ip), vehicle: Klucel (hydroxypropylcellulose) (HPC) 98 % of control | endpoint: mean survival time, dose: 200.0 mg/kg/injection, schedule: Q04DX003 (ip), vehicle: Klucel (hydroxypropylcellulose) (HPC) 102 % of control | endpoint: mean survival time, dose: 400.0 mg/kg/injection, schedule: Q04DX003 (ip), vehicle: Klucel (hydroxypropylcellulose) (HPC) 98 % of control

NC(=S)N/N=C/c1cc(Cl)c2nc(-c3ccccc3)ccc2c1
inactive: [3] 104 % of control | [4] 102 % of control | [5] 104 % of control

CCOC(=O)c1ccc(NC(=O)N(C)C2CCCCC2)cc1
inactive: [6] 95 % of control and 102 % of control | [7] 100 % of control and 104 % of control | [8] 91 % of control and 92 % of control | [3] 92 % of control | [9] 100 % of control and 104 % of control | [10] 92 % of control and 109 % of control | [4] 96 % of control | [11] 102 % of control | [5] 91 % of control

CCCCN=C(Cl)C(Cl)(c1ccccc1)c1ccccc1
inactive: endpoint: mean survival time, dose: 100.0 mg/kg/injection, schedule: Q04DX002 (ip), vehicle: saline 98 % of control | endpoint: mean survival time, dose: 200.0 mg/kg/injection, schedule: Q04DX002 (ip), vehicle: saline 103 % of control | endpoint: mean survival time, dose: 400.0 mg/kg/injection, schedule: Q04DX002 (ip), vehicle: saline 95 % of control

O=C(/C=C/c1ccccc1)Oc1cc(O)cc(O)c1
inactive: endpoint: mean survival time, dose: 12.5 mg/kg/injection, schedule: Q04DX002 (ip), vehicle: saline with Tween-80 102 % of control | endpoint: mean survival time, dose: 25.0 mg/kg/injection, schedule: Q04DX002 (ip), vehicle: saline with Tween-80 105 % of control | endpoint: mean survival time, dose: 50.0 mg/kg/injection, schedule: Q04DX002 (ip), vehicle: saline with Tween-80 105 % of control

O=P(Nc1ccccc1)(Oc1c(F)c(F)c(F)c(F)c1F)N(CCCl)CCCl (stereo not drawn)
inactive: endpoint: mean survival time, dose: 62.5 mg/kg/injection, schedule: Q01DX001 (ip), vehicle: other 87 % of control | endpoint: mean survival time, dose: 125.0 mg/kg/injection, schedule: Q01DX001 (ip), vehicle: other 107 % of control | endpoint: mean survival time, dose: 250.0 mg/kg/injection, schedule: Q01DX001 (ip), vehicle: other 96 % of control | endpoint: mean survival time, dose: 500.0 mg/kg/injection, schedule: Q01DX001 (ip), vehicle: other 96 % of control

CCCCN1C(=O)N(c2ccc(OCC)cc2)C2N(CCCC)C1C(C)(C)C2(C)C (stereo not drawn)
inactive: [8] 107 % of control | endpoint: median survival time, dose: 7.5 mg/kg/injection, schedule: Q01DX005 (ip), vehicle: saline with Tween-80 107 % of control | endpoint: median survival time, dose: 15.0 mg/kg/injection, schedule: Q01DX005 (ip), vehicle: saline with Tween-80 110 % of control | endpoint: median survival time, dose: 30.0 mg/kg/injection, schedule: Q01DX005 (ip), vehicle: saline with Tween-80 101 % of control | endpoint: median survival time, dose: 60.0 mg/kg/injection, schedule: Q01DX005 (ip), vehicle: saline with Tween-80 101 % of control | endpoint: median survival time, dose: 120.0 mg/kg/injection, schedule: Q01DX005 (ip), vehicle: saline with Tween-80 113 % of control

CCOc1ccc(/C=C/[N+](=O)[O-])cc1
inactive: [7] 114 % of control | [3] 104 % of control | [9] 89 % of control | [4] 98 % of control | [5] 111 % of control

CN(C)Cc1cc(CN(C)C)c(O)c(CN(C)C)c1
inactive: [1] 107 % of control | [2] 100 % of control

N=S(=O)(c1ccccc1)c1ccccc1
inactive: [12] 98 % of control | [8] 110 % of control | [13] 94 % of control | [10] 93 % of control | [14] 107 % of control

Cc1cccc(Cl)c1C#N
inactive: [12] 104 % of control | [7] 94 % of control | [3] 107 % of control | [13] 106 % of control | [9] 100 % of control | [4] 101 % of control | [14] 106 % of control | [15] 90 % of control | [5] 100 % of control

CC(CC(=O)O)(C(=O)O)S(=O)O (stereo not drawn)
inactive: endpoint: mean survival time, dose: 100.0 mg/kg/injection, schedule: Q04DX002 (ip), vehicle: other 97 % of control | endpoint: mean survival time, dose: 200.0 mg/kg/injection, schedule: Q04DX002 (ip), vehicle: other 100 % of control | endpoint: mean survival time, dose: 400.0 mg/kg/injection, schedule: Q04DX002 (ip), vehicle: other 100 % of control

SCc1c(Cl)c(Cl)c(Cl)c(Cl)c1Cl
inactive: [8] 94 % of control | [10] 87 % of control | [11] 97 % of control

O=C(CCN1C(=O)c2ccccc2C1=O)c1ccc(O)cc1
inactive: [3] 93 % of control | [4] 98 % of control | [5] 92 % of control

CCCCCCCCCCCCCCCCCC[N+]1(Cc2ccccc2)CCOCC1
inactive: endpoint: mean survival time, dose: 25.0 mg/kg/injection, schedule: Q01DX009 (ip), vehicle: saline with Tween-80 103 % of control | [6] 115 % of control | [7] 91 % of control and 100 % of control

CN(C)/C=N/N1C(=O)CSC1=S
inactive: endpoint: mean survival time, dose: 25.0 mg/kg/injection, schedule: Q04DX003 (ip), vehicle: saline 107 % of control | endpoint: mean survival time, dose: 50.0 mg/kg/injection, schedule: Q04DX003 (ip), vehicle: saline 103 % of control | [1] 101 % of control and 103 % of control

O=S(=O)(Nc1ccc(Br)cc1)c1ccc(Cl)c(Cl)c1
inactive: [8] 91 % of control | [10] 88 % of control | [11] 88 % of control

c1ccc2c(c1)ccc1c(C3CO3)cccc12 (stereo not drawn)
inactive: endpoint: mean survival time, dose: 100.0 mg/kg/injection, schedule: Q01DX005 (ip), vehicle: saline with Tween-80 103 % of control | [7] 93 % of control | endpoint: mean survival time, dose: 200.0 mg/kg/injection, schedule: Q01DX005 (ip), vehicle: saline with Tween-80 106 % of control | [9] 101 % of control | endpoint: mean survival time, dose: 400.0 mg/kg/injection, schedule: Q01DX005 (ip), vehicle: saline with Tween-80 95 % of control | [15] 101 % of control

Nc1nc2c([nH]c(=S)n2C2OC(CO)C(O)C2O)c(=O)[nH]1 (stereo not drawn)
inactive: [8] 100 % of control | [10] 97 % of control | [11] 97 % of control

CCOC(=O)Nc1cc2c(c(N)n1)NC(CN(C)c1ccccc1)CN2 (stereo not drawn)
inactive: endpoint: mean survival time, dose: 100.0 mg/kg/injection, schedule: Q01DX001 (ip), vehicle: Klucel (hydroxypropylcellulose) (HPC) 94 % of control | endpoint: mean survival time, dose: 200.0 mg/kg/injection, schedule: Q01DX001 (ip), vehicle: Klucel (hydroxypropylcellulose) (HPC) 103 % of control | endpoint: mean survival time, dose: 400.0 mg/kg/injection, schedule: Q01DX001 (ip), vehicle: Klucel (hydroxypropylcellulose) (HPC) 110 % of control
